According to patent US20110318768A1, “METHOD FOR DETERMINING SENSITIVITY OF TUMOR CELLS TO TYROSINE KINASE INHIBITOR AND COMPUTER PROGRAM PRODUCT” (SYSMEX CORPORATION, priority 2010, published 2011):

Experiments:
[1] = tested on: tyrosine kinase in measurement samples of lapatinib-insensitive cell line group; test: Tyrosine kinase activity inhibition, group comparison (FIG. 3); type: biochemical
Protocol: (§1) After shaking the measuring plate at 37° C. and 400 rpm for 60 minutes, the solution was removed from the measuring plate, and the wells were washed with 300 μl of TBS-T three times. 100 μl of Starting Block T20 (TBS) (#37543: Pierce) as a blocking solution was added to the wells, followed by blocking at 37° C. and 400 rpm for 10 minutes. The blocking solution was removed from the measuring plate. 100 μl of a solution prepared by diluting HRP-labeled anti-phosphorylated tyrosine antibody (#sc-508 HRP: Santa Cruz) with Starting Block T20 (TBS) at a ratio of 1:1000 was added to the wells, followed by shaking at 37° C. and 400 rpm for 90 minutes. Then, the wells were washed with 300 μl of TBS-T five times. […] Thereafter, the emission from the wells was measured by a GENios microplate reader (manufactured by Tecan Trading AG). The inhibitory capacity of the kinase inhibitors in the measurement sample was evaluated by an inhibition rate (value of “100−{(measurement value of activity in the presence of inhibitors)/(measurement value of activity in the absence of inhibitors)}×100”) calculated base on a ratio of the measurement value of tyrosine kinase activity in the presence of the inhibitors and the measurement value of the control (in the absence of the inhibitors). […]

[2] = tested on: tyrosine kinase in measurement samples of lapatinib-sensitive cell line group; test: as above; type: biochemical
Protocol: as §1

[3] = tested on: tyrosine kinase of BT-474; conditions: US 2011027809; cited from earlier work
[4] = tested on: tyrosine kinase of SK-Br-3; conditions: US 2011027809; cited from earlier work
[5] = tested on: tyrosine kinase of MDA-MB231; conditions: US 2011027809; cited from earlier work
tyrosine kinase of MCF7 = conditions: US 2011027809; cited from earlier work

## COc1cc2ncnc(Nc3ccc(Oc4ccccc4)cc3)c2cc1OC [Inhibitor 10, 4-(4′-phenoxyanilino)-6,7-dimethoxyquinazoline]
[1]
  inhibitory effect of the Src inhibitor on the kinase activity: high
[2]
  inhibitory effect of the Src inhibitor on the kinase activity: low
[3]
  tyrosine kinase activity inhibitory effects caused by the Src inhibitor: high
[4]
  tyrosine kinase activity inhibitory effects caused by the Src inhibitor: high
[5]
  tyrosine kinase activity inhibitory effects caused by the Src inhibitor: low
Tyrosine kinase of MCF7
  tyrosine kinase activity inhibitory effects caused by the Src inhibitor: low
